Measured values as given in patent US12139520B2 (priority 2020, dated 2024).
Numbered stars: 1 amine (or outer) side, 2 acyl side, 3 side chain; on linkers, the order of the positions; unused ones are H or OH. Bridge positions count the residues as written; N and C are the ends. Square brackets hold non-standard residues; d marks the D form. Side chains are listed from the residue outwards. Peptide text beside a SMILES is read from it. * marks the point of attachment. C20 diacid = O=C(O)CCCCCCCCCCCCCCCCCCC(=O)*; γGlu = O=C(O)[C@H](CCC(=O)[*:2])N[*:1]; Hyp = O=C(O)[C@@H]1C[C@@H](O)CN1; Cit = NC(=O)NCCC[C@H](N)C(=O)O; AEEA = NCCOCCOCC(=O)O

Key:
hAM1 receptor = hAM1 receptor (Homo sapiens, UniProt O60895+Q16602); assay: cAMP assay for in vitro receptor activation, hAM1-R; assay type: cell-based; conditions: cAMP assay, hAM1 receptor; read-out: hAM1R EC50
Outline: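 Monoclonal stable hAM1-overexpressing cells, thawed from frozen stock; 8000 cells/well in DPBS + 0.05% casein + 0.5 mM IBMX; read-out cAMP.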

hAMY3 receptor = biological target: T1, hAMY3 receptor (Homo sapiens, UniProt O60896+P30988); assay: cAMP assay for in vitro receptor activation, hAMY3-R; assay type: cell-based; conditions: cAMP assay, hAMY3 receptor; read-out: hAMY3R EC50
T1 sequence (P30988 25-474): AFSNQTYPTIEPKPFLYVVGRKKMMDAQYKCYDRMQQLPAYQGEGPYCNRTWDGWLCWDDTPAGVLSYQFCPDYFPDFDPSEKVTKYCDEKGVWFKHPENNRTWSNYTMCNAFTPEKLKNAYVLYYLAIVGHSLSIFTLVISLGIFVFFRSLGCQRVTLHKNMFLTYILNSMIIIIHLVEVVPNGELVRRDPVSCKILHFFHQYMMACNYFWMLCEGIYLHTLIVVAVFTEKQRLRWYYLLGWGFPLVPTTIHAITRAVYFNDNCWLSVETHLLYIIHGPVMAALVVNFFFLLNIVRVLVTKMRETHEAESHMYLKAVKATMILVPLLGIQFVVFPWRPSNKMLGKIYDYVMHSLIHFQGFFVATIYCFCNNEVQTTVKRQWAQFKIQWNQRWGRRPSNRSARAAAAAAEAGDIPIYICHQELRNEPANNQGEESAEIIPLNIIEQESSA
T1 sequence (O60896 24-148 partner): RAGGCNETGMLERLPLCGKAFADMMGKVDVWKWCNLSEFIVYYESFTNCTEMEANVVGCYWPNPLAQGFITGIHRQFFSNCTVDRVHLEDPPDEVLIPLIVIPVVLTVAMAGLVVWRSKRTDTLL
Outline: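 Read-out is TR-FRET cAMP signal, recorded one hour after reagent addition, following 30 min room-temperature stimulation of stable hAMY3 cells with graded compound doses in casein/IBMX (0.5 mM) buffer.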

hAM1 receptor, sequence (Q16602 23-461): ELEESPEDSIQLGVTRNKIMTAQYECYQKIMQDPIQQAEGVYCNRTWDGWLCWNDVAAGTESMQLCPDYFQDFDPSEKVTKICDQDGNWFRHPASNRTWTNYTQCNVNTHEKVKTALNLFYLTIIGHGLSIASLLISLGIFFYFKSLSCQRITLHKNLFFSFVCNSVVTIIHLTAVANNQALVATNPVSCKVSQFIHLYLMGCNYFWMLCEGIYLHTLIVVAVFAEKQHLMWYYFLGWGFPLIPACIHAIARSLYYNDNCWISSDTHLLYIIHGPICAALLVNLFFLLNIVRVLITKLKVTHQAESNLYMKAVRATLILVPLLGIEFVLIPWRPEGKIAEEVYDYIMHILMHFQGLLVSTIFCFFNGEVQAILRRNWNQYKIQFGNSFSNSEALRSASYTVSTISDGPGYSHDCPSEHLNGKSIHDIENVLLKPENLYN
hAM1 receptor, sequence (O60895 43-175 partner): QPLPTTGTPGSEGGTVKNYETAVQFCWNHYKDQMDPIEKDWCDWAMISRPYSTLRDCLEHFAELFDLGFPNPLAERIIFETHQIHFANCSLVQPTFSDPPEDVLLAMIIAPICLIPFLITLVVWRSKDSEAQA

Compound | EC50 (hAM1 receptor) | EC50 (hAMY3 receptor)
CC[C@H](C)[C@H](NC(=O)[C@H](CCC(N)=O)NC(=O)[C@H](CCC(=O)O)NC(=O)[C@H](C)NC(=O)[C@H](CC(C)C)NC(=O)[C@H](CCCNC(=N)N)NC(=O)[C@H](CCC(N)=O)NC(=O)[C@@H](NC(=O)[C@@H](NC(=O)[C@@H]1CSSC[C@H](NC(=O)[C@@H](N)CCCCN)C(=O)N[C@@H](CC(N)=O)C(=O)N[C@@H]([C@@H](C)O)C(=O)N[C@@H](C)C(=O)N[C@@H]([C@@H](C)O)C(=O)N1)[C@@H](C)O)C(C)C)C(=O)N[C@@H](Cc1ccc(O)cc1)C(=O)N[C@@H](CCC(N)=O)C(=O)N[C@@H](Cc1ccccc1)C(=O)N[C@H](C(=O)N[C@@H](CC(=O)O)C(=O)N[C@@H](CCCCN)C(=O)N[C@@H](CC(=O)O)C(=O)N[C@@H](CCCCN)C(=O)N[C@@H](CCCCNC(=O)COCCOCCNC(=O)COCCOCCNC(=O)CC[C@H](NC(=O)CCCCCCCCCCCCCCCCCCC(=O)O)C(=O)O)C(=O)N[C@@H](CC(N)=O)C(=O)N[C@H](C(=O)N[C@@H](C)C(=O)N1CCC[C@H]1C(=O)N1CCC[C@H]1C(=O)N[C@H](C(=O)N[C@@H](CC(N)=O)C(=O)N[C@H](C(=O)NCC(=O)N[C@@H](CO)C(=O)N[C@@H](CC(N)=O)C(=O)NCC(=O)N1C[C@H](O)C[C@H]1C(N)=O)C(C)C)[C@@H](C)O)C(C)C)[C@@H](C)O [compound 40] (H-KCNTATCTVQRLAEQIYQFTDKDKK([AEEA-AEEA-γGlu-C20 diacid])NVAPPTNVGSNG[Hyp]-NH2; disulfide 2-7; N-terminus assumed) | > 5000 nM | 0.01 nM
CC[C@H](C)[C@H](NC(=O)[C@H](CCC(N)=O)NC(=O)[C@H](Cc1c[nH]cn1)NC(=O)[C@H](C)NC(=O)[C@H](CC(C)C)NC(=O)[C@H](CCCNC(=N)N)NC(=O)[C@H](CCC(N)=O)NC(=O)[C@@H](NC(=O)[C@@H](NC(=O)[C@@H]1CSSC[C@H](NC(=O)[C@H](CCCCN)NC(=O)CC[C@H](NC(=O)CCCCCCCCCCCCCCCCCCC(=O)O)C(=O)O)C(=O)N[C@@H](CC(N)=O)C(=O)N[C@@H]([C@@H](C)O)C(=O)N[C@@H](CO)C(=O)N[C@@H]([C@@H](C)O)C(=O)N1)[C@@H](C)O)C(C)C)C(=O)N[C@@H](C)C(=O)N[C@@H](CCC(N)=O)C(=O)N[C@@H](Cc1ccccc1)C(=O)N[C@H](C(=O)N[C@@H](CC(=O)O)C(=O)N[C@@H](CCCCN)C(=O)N[C@@H](CC(=O)O)C(=O)N[C@@H](CCCCN)C(=O)N[C@@H](CC(=O)O)C(=O)N[C@@H](CC(N)=O)C(=O)N[C@H](C(=O)N[C@@H](C)C(=O)N1CCC[C@H]1C(=O)N1CCC[C@H]1C(=O)N[C@H](C(=O)N[C@@H](CC(N)=O)C(=O)N[C@H](C(=O)NCC(=O)N[C@@H](CO)C(=O)N[C@@H](CC(N)=O)C(=O)NCC(=O)N1C[C@H](O)C[C@H]1C(N)=O)C(C)C)[C@@H](C)O)C(C)C)[C@@H](C)O [compound 62] ({C20 diacid-γGlu}-KCNTSTCTVQRLAHQIAQFTDKDKDNVAPPTNVGSNG[Hyp]-NH2; disulfide 2-7) | > 5000 nM | 0.012 nM
CC[C@H](C)[C@H](NC(=O)[C@H](CCC(N)=O)NC(=O)[C@H](CCC(=O)O)NC(=O)[C@H](C)NC(=O)[C@H](CC(C)C)NC(=O)[C@H](CCCNC(N)=O)NC(=O)[C@H](C)NC(=O)[C@@H](NC(=O)[C@@H](NC(=O)[C@@H]1CSSC[C@H](NC(=O)[C@@H](N)CCCNC(=N)N)C(=O)N[C@@H](CCC(N)=O)C(=O)N[C@@H](C)C(=O)N[C@@H](CO)C(=O)N[C@@H]([C@@H](C)O)C(=O)N1)[C@@H](C)O)C(C)C)C(=O)N[C@@H](C)C(=O)N[C@@H](CCC(N)=O)C(=O)N[C@@H](Cc1ccc(O)cc1)C(=O)N[C@H](C(=O)N[C@@H](CC(=O)O)C(=O)N[C@@H](CCCCN)C(=O)N[C@@H](CC(=O)O)C(=O)N[C@@H](CCCCN)C(=O)N[C@@H](CC(=O)O)C(=O)N[C@@H](CCC(N)=O)C(=O)N[C@H](C(=O)N[C@@H](C)C(=O)N1CCC[C@H]1C(=O)N1CCC[C@H]1C(=O)N[C@H](C(=O)N[C@@H](CCC(=O)O)C(=O)N[C@H](C(=O)NCC(=O)N1CCC[C@H]1C(=O)N[C@@H](CC(N)=O)C(=O)N[C@@H](CO)C(=O)N1C[C@H](O)C[C@H]1C(N)=O)C(C)C)[C@@H](C)O)C(C)C)[C@@H](C)O [compound 33] (H-RCQASTCTVA[Cit]LAEQIAQYTDKDKDQVAPPTEVGPNS[Hyp]-NH2; disulfide 2-7; N-terminus assumed) | > 5000 nM | 0.008 nM

Results, then the compound that gave them:

EC50 (hAM1 receptor) | EC50 (hAMY3 receptor) | Compound
> 5000 nM | 0.012 nM | CC[C@H](C)[C@H](NC(=O)[C@H](CCC(N)=O)NC(=O)[C@H](CCC(=O)O)NC(=O)[C@H](C)NC(=O)[C@H](CC(C)C)NC(=O)[C@H](CCCNC(=N)N)NC(=O)[C@H](CCC(N)=O)NC(=O)[C@@H](NC(=O)[C@@H](NC(=O)[C@@H]1CSSC[C@H](NC(=O)[C@@H](N)CCCCN)C(=O)N[C@@H](CC(N)=O)C(=O)N[C@@H]([C@@H](C)O)C(=O)N[C@@H](C)C(=O)N[C@@H]([C@@H](C)O)C(=O)N1)[C@@H](C)O)C(C)C)C(=O)N[C@@H](Cc1ccc(O)cc1)C(=O)N[C@@H](CCC(N)=O)C(=O)N[C@@H](Cc1ccccc1)C(=O)N[C@H](C(=O)N[C@@H](CC(=O)O)C(=O)N[C@@H](CCCCN)C(=O)N[C@@H](CC(=O)O)C(=O)N[C@@H](CCCCN)C(=O)N[C@@H](CC(=O)O)C(=O)N[C@@H](CC(N)=O)C(=O)N[C@H](C(=O)N[C@@H](CO)C(=O)N1CCC[C@H]1C(=O)N1CCC[C@H]1C(=O)N[C@H](C(=O)N[C@@H](CC(N)=O)C(=O)N[C@H](C(=O)NCC(=O)N[C@@H](CO)C(=O)N[C@@H](CC(N)=O)C(=O)NCC(=O)N1C[C@H](O)C[C@H]1C(N)=O)C(C)C)[C@@H](C)O)C(C)C)[C@@H](C)O [compound 66] (H-KCNTATCTVQRLAEQIYQFTDKDKDNVSPPTNVGSNG[Hyp]-NH2; disulfide 2-7)
> 5000 nM | 0.018 nM | CC[C@H](C)[C@H](NC(=O)[C@H](CCC(N)=O)NC(=O)[C@H](Cc1c[nH]cn1)NC(=O)[C@H](C)NC(=O)[C@H](CC(C)C)NC(=O)[C@H](CCCNC(=N)N)NC(=O)[C@H](CCC(N)=O)NC(=O)[C@@H](NC(=O)[C@@H](NC(=O)[C@@H]1CSSC[C@H](NC(=O)[C@@H](N)CCCCN)C(=O)N[C@@H](CC(N)=O)C(=O)N[C@@H]([C@@H](C)O)C(=O)N[C@@H](C)C(=O)N[C@@H]([C@@H](C)O)C(=O)N1)[C@@H](C)O)C(C)C)C(=O)N[C@@H](Cc1ccc(O)cc1)C(=O)N[C@@H](CCC(N)=O)C(=O)N[C@@H](Cc1ccccc1)C(=O)N[C@H](C(=O)N[C@@H](CC(=O)O)C(=O)N[C@@H](CCCCN)C(=O)N[C@@H](CC(=O)O)C(=O)N[C@@H](CCCCN)C(=O)N[C@@H](CC(=O)O)C(=O)N[C@@H](CC(N)=O)C(=O)N[C@H](C(=O)N[C@@H](C)C(=O)N1CCC[C@H]1C(=O)N[C@@H](CCCNC(=N)N)C(=O)N[C@H](C(=O)N[C@@H](CCC(=O)O)C(=O)N[C@H](C(=O)NCC(=O)N[C@@H](CO)C(=O)N[C@@H](CC(N)=O)C(=O)NCC(=O)N[C@@H](Cc1ccc(O)cc1)C(N)=O)C(C)C)[C@@H](C)O)C(C)C)[C@@H](C)O [compound 102] (H-KCNTATCTVQRLAHQIYQFTDKDKDNVAPRTEVGSNGY-NH2; disulfide 2-7; N-terminus assumed)
107 nM | 0.028 nM | CC[C@H](C)[C@H](NC(=O)[C@H](CCCCN)NC(=O)[C@H](CO)NC(=O)[C@H](CCCNC(=N)N)NC(=O)[C@@H]1CCCN1C(=O)[C@H](C)NC(=O)[C@@H](NC(=O)[C@H](CC(N)=O)NC(=O)[C@H](CC(=O)O)NC(=O)[C@H](CCCCN)NC(=O)[C@H](CC(=O)O)NC(=O)[C@H](CCCCN)NC(=O)[C@H](CC(=O)O)NC(=O)[C@@H](NC(=O)[C@H](Cc1ccccc1)NC(=O)[C@H](CCC(N)=O)NC(=O)[C@H](Cc1ccc(O)cc1)NC(=O)[C@@H](NC(=O)[C@H](CCC(N)=O)NC(=O)[C@H](Cc1c[nH]cn1)NC(=O)[C@H](C)NC(=O)[C@H](CC(C)C)NC(=O)[C@H](CCCNC(=N)N)NC(=O)[C@H](CCC(N)=O)NC(=O)[C@@H](NC(=O)[C@@H](NC(=O)[C@@H]1CSSC[C@H](NC(=O)CN)C(=O)N[C@@H](CCCNC(=N)N)C(=O)N[C@@H](Cc2ccccc2)C(=O)NCC(=O)N[C@@H]([C@@H](C)O)C(=O)N1)[C@@H](C)O)C(C)C)[C@@H](C)CC)[C@@H](C)O)C(C)C)C(=O)NCC(=O)N1CCC[C@H]1C(=O)N[C@@H](CCC(N)=O)C(=O)NCC(=O)N1C[C@H](O)C[C@H]1C(N)=O [compound 127] (H-GCRFGTCTVQRLAHQIYQFTDKDKDNVAPRSKIGPQG[Hyp]-NH2; disulfide 2-7; N-terminus assumed)
